≈ marks a conversion by molar mass, not a printed value.
What was measured:
Male mice of ddY strain [1] = assay: Acute toxicity (i.v.); format: in vivo; settings: 270 mg/kg (i.v.)
Description: Male mice of ddY strain, 4 weeks old, were used. Test compounds were solved in 0.1N--NaOH solution and neutralized with 0.1N--HCl solution. Each compound was administered intravenously (i.v.) at a dose of 270 mg/kg. […]

[2] = system: Serratia marcescens IAM 1184; assay: Antibacterial spectrum, MIC by twofold agar dilution method; format: cell-based; settings: IAM1184, 10^6 cfu/ml, standard laboratory strain, Gram -, 18 hrs at 37° C
Description: (§1) Overnight cultures in Mueller-Hinton broth were suspended by buffered saline gelatin. One loopful of the bacterial suspension (10^6 or 10^8 colony-forming units/ml) was incubated onto the plates containing test compounds. The plates were incubated for 18 hrs at 37° C. The MIC was defined by the lowest concentration of the drug that inhibited visible growth of bacteria.

[3] = system: Pseudomonas aeruginosa HNR 1489; assay: as above; format: cell-based; settings: HNR1489, 10^6 cfu/ml, clinically isolated strain, Gram -, 18 hrs at 37° C
Description: as §1

[4] = system: Enterobacter cloacae HNR 1946; assay: as above; format: cell-based; settings: HNR1946, 10^6 cfu/ml, clinically isolated strain, Gram -, 18 hrs at 37° C
Description: as §1

[5] = system: Klebsiella pneumoniae HNR 828; assay: as above; format: cell-based; settings: HNR828, 10^6 cfu/ml, clinically isolated strain, Gram -, 18 hrs at 37° C
Description: as §1

[6] = system: Pseudomonas aeruginosa HNR 1537; assay: as above; format: cell-based; settings: HNR1537, 10^6 cfu/ml, clinically isolated strain, Gram -, 18 hrs at 37° C
Description: as §1

[7] = system: Acinetobacter calcoaceticus HNR 904; assay: as above; format: cell-based; settings: HNR904, 10^6 cfu/ml, clinically isolated strain, Gram -, 18 hrs at 37° C
Description: as §1

[8] = system: Staphylococcuss aureus HPC 292; assay: as above; format: cell-based; settings: 10^6 cfu/ml; clinically isolated strain, Gram +; 18 hrs at 37° C; read-out: MIC
Description: as §1

[9] = system: Pseudomonas aeruginosa IFO 3445; assay: as above; format: cell-based; settings: IFO3445, 10^6 cfu/ml, standard laboratory strain, Gram -, 18 hrs at 37° C
Description: as §1

[10] = system: Enterococcus faecalis HPC 984; assay: as above; format: cell-based; settings: HPC984, 10^6 cfu/ml, clinically isolated strain, Gram +, 18 hrs at 37° C
Description: as §1

[11] = system: Enterobacter cloacae HNR 1939; assay: as above; format: cell-based; settings: HNR1939, 10^6 cfu/ml, clinically isolated strain, Gram -, 18 hrs at 37° C
Description: as §1

[12] = system: Escherichia coli NIHJ JC-2; assay: as above; format: cell-based; settings: NIHJJC2, 10^6 cfu/ml, standard laboratory strain, Gram -, 18 hrs at 37° C
Description: as §1

[13] = system: Staphylococcuss aureus HPC 527; assay: as above; format: cell-based; settings: 10^6 cfu/ml; clinically isolated strain, Gram +; 18 hrs at 37° C
Description: as §1

[14] = system: Enterococcus faecalis HPC 948; assay: as above; format: cell-based; settings: HPC948, 10^6 cfu/ml, clinically isolated strain, Gram +, 18 hrs at 37° C
Description: as §1

[15] = system: Acinetobacter calcoaceticus HNR 916; assay: as above; format: cell-based; settings: HNR916, 10^6 cfu/ml, clinically isolated strain, Gram -, 18 hrs at 37° C
Description: as §1

[16] = system: Staphylococuss aureus FDA 209PJC-1; assay: as above; format: cell-based; settings: 10^6 cfu/ml; standard laboratory strain, Gram +; 18 hrs at 37° C
Description: as §1

[17] = system: Enterococcus faecalis HPC 975; assay: as above; format: cell-based; settings: HPC975, 10^6 cfu/ml, clinically isolated strain, Gram +, 18 hrs at 37° C
Description: as §1

[18] = system: Klebsiella pneumoniae HNR 858; assay: as above; format: cell-based; settings: HNR858, 10^6 cfu/ml, clinically isolated strain, Gram -, 18 hrs at 37° C
Description: as §1

[19] = system: Acinetobacter calcoaceticus HNR 939; assay: as above; format: cell-based; settings: HNR939, 10^6 cfu/ml, clinically isolated strain, Gram -, 18 hrs at 37° C
Description: as §1

Enterobacter cloacae 963 = assay: as above; format: cell-based; settings: 10^6 cfu/ml, standard laboratory strain, Gram -, 18 hrs at 37° C
Description: as §1

[20] = system: Serratia marcescens HNR 1792; assay: as above; format: cell-based; settings: HNR1792, 10^6 cfu/ml, clinically isolated strain, Gram -, 18 hrs at 37° C
Description: as §1

[21] = system: Klebsiella pneumoniae HNR 869; assay: as above; format: cell-based; settings: HNR869, 10^6 cfu/ml, clinically isolated strain, Gram -, 18 hrs at 37° C
Description: as §1

[22] = system: Serratia marcescens HNR 1544; assay: as above; format: cell-based; settings: HNR1544, 10^6 cfu/ml, clinically isolated strain, Gram -, 18 hrs at 37° C
Description: as §1

[23] = system: Serratia marcescens HNR 1767; assay: as above; format: cell-based; settings: HNR1767, 10^6 cfu/ml, clinically isolated strain, Gram -, 18 hrs at 37° C
Description: as §1

[24] = system: Pseudomonas aeruginosa HNR 1472; assay: as above; format: cell-based; settings: HNR1472, 10^6 cfu/ml, clinically isolated strain, Gram -, 18 hrs at 37° C
Description: as §1

[25] = system: Klebsiella pneumoniae PCI-602; assay: as above; format: cell-based; settings: PCI602, 10^6 cfu/ml, standard laboratory strain, Gram -, 18 hrs at 37° C, read-out: MIC
Description: Minimum inhibitory concentrations (MIC) of test compounds were determined by the twofold agar dilution method (Chemotherapy, 29(1), 76(1981)). Overnight cultures in Mueller-Hinton broth were suspended by buffered saline gelatin. One loopful of the bacterial suspension (10^6 or 10^8 colony-forming units/ml) was incubated onto the plates containing test compounds. The plates were incubated for 18 hrs at 37° C. The MIC was defined by the lowest concentration of the drug that inhibited visible growth of bacteria.

Male mice of ddY strain [26] = assay: Convulsion inducing activity in combination with fenbufen; settings: 30 min after fenbufen 100 mg/kg orally
Description: Male mice of ddY strain, 5 weeks old, were used. Fenbufen suspended in 0.5% carboxymethyl cellulose was administered orally at a dose of 100 mg/kg. After thirty minutes, test compounds suspended in 0.5% carboxymethyl cellulose were injected intraperitoneally (i.p.) at a dose of 100 mg/kg or 300 mg/kg.

[27] = system: Staphylococcuss aureus HPC 308; assay: Antibacterial spectrum, MIC by twofold agar dilution method; format: cell-based; settings: 10^6 cfu/ml; clinically isolated strain, Gram +; 18 hrs at 37° C
Description: as §1

[28] = system: Enterobacter cloacae HNR 1941; assay: as above; format: cell-based; settings: HNR1941, 10^6 cfu/ml, clinically isolated strain, Gram -, 18 hrs at 37° C
Description: as §1

Row | SMILES | Number of death/Number of animals (Male mice of ddY strain [1]) | MIC [2] [µg/mL] | MIC [3] [µg/mL] | MIC [4] [µg/mL] | MIC [5] [µg/mL] | MIC [6] [µg/mL] | MIC [8] [µg/mL] | MIC [9] [µg/mL] | MIC [10] [µg/mL] | MIC [11] [µg/mL] | MIC [12] [µg/mL] | MIC [13] [µg/mL] | MIC [14] [µg/mL] | MIC [15] [µg/mL] | MIC [16] [µg/mL] | MIC [17] [µg/mL] | MIC [18] [µg/mL] | MIC [19] [µg/mL] | MIC (Enterobacter cloacae 963) [µg/mL] | MIC [20] [µg/mL] | also measured
1 | CC1Sc2c(C(=O)O)c(=O)c3cc(F)c(N4CC[C@H](N)C4)c(F)c3n21 (single isomer, unassigned) [Example 27] | 4/10 | 0.05 (≈ 0.136 µM) | 0.1 (≈ 0.272 µM) | 0.2 (≈ 0.544 µM) | 1.56 (≈ 4.25 µM) | 6.25 (≈ 17 µM) | 6.25 (≈ 17 µM) | 0.1 (≈ 0.272 µM) | 0.2 (≈ 0.544 µM) | 0.2 (≈ 0.544 µM) | 0.025 (≈ 0.068 µM) | 0.05 (≈ 0.136 µM) | 0.78 (≈ 2.12 µM) | 0.1 (≈ 0.272 µM) | 0.025 (≈ 0.068 µM) | 6.25 (≈ 17 µM) | 0.2 (≈ 0.544 µM) | 1.56 (≈ 4.25 µM) | 0.05 (≈ 0.136 µM) | 1.56 (≈ 4.25 µM) | MIC [7]: 25 µg/mL (≈ 68 µM); MIC [21]: 0.78 µg/mL (≈ 2.12 µM); MIC [22]: 0.05 µg/mL (≈ 0.136 µM); MIC [23]: 6.25 µg/mL (≈ 17 µM); MIC [24]: 3.13 µg/mL (≈ 8.52 µM); MIC [25]: ≤ 0.003 µg/mL; Number of convulsion induced/Number of animals (Male mice of ddY strain [26]; 100 mg/kg (i.p.)): 0/6; Number of convulsion induced/Number of animals (Male mice of ddY strain [26]; 300 mg/kg (i.p.)): 0/6
2 | CC1Sc2c(C(=O)O)c(=O)c3cc(F)c(N4CC[C@H](N)C4)c(Cl)c3n21 (single isomer, unassigned) [Example 29] | 3/10 | 0.1 (≈ 0.261 µM) | 0.2 (≈ 0.521 µM) | 0.2 (≈ 0.521 µM) | 1.56 (≈ 4.06 µM) | 3.13 (≈ 8.15 µM) | 6.25 (≈ 16.3 µM) | 0.1 (≈ 0.261 µM) | 0.2 (≈ 0.521 µM) | 0.2 (≈ 0.521 µM) | 0.025 (≈ 0.0651 µM) | 0.05 (≈ 0.13 µM) | 0.78 (≈ 2.03 µM) | 0.1 (≈ 0.261 µM) | 0.05 (≈ 0.13 µM) | 6.25 (≈ 16.3 µM) | 0.2 (≈ 0.521 µM) | 1.56 (≈ 4.06 µM) | 0.025 (≈ 0.0651 µM) | 0.78 (≈ 2.03 µM) | MIC [27]: 0.78 µg/mL (≈ 2.03 µM); MIC [28]: 1.56 µg/mL (≈ 4.06 µM); MIC [21]: 0.39 µg/mL (≈ 1.02 µM); MIC [22]: 0.05 µg/mL (≈ 0.13 µM); MIC [23]: 3.13 µg/mL (≈ 8.15 µM); MIC [24]: 3.13 µg/mL (≈ 8.15 µM); Number of convulsion induced/Number of animals (Male mice of ddY strain [26]; 100 mg/kg (i.p.)): 0/6; Number of convulsion induced/Number of animals (Male mice of ddY strain [26]; 300 mg/kg (i.p.)): 0/6

Reference: US5126337A, “Thiazetoquinoline-3-carboxylic acid derivative and a pharmaceutical composition comprising the same” (priority 1989, dated 1992)
